{"source": "patent US11850238B2", "about": "“Use of a thienopyridone derivative in the treatment of adrenoleukodystrophy or adrenomyeloneuropathy” (POXEL, priority 2020, dated 2023)", "key": {"[1]": {"system": "AMN human patient-derived primary fibroblasts", "test": "Hexacosanoic acid (VLCFA) level in AMN patient-derived fibroblasts, LC-MS", "assay_type": "cell-based", "conditions": "AMN patient-derived fibroblasts", "procedure": "In order to compare the efficacy of PXL770 and metformin to lower very long chain fatty acids (VLCFA) in vitro, the study focuses on the level assessment of the hexacosanoic acid, which is the most prevalent VLCFA, in healthy control cells and in AMN human patient-derived primary fibroblasts. The cell lines were obtained from Coriell Cell Repositories. Fibroblasts were cultured in DMEM with 15% FBS. The cultures were split in 1:5 ratio. Fibroblasts from healthy patients were used as control. All treatments were in complete media containing fetal bovine serum (FBS, 15%). All cultured cells were maintained at 37° C. in 5% CO2.\nVLCFA content was then measured as follows. Samples are adjusted to a final volume of 0.5-1 ml with LC-MS grade water and spiked with 10 ng of Lignoceric acid-d4 as an internal standard. The sample is acidified to pH 3-4 with dilute hydrochloric acid and extracted with isooctane-ethyl acetate (9:1) three times with equal volume. The extract is dried under nitrogen and the residue is reconstituted in methanol-water-ammonium acetate (75:25:10 mM).\nTotal fatty acids: After preparing the samples with internal standard as described above for free fatty acids, aqueous sodium hydroxide is added to a final concentration of 1 M. The mixture is incubated at 37° C. in dark under nitrogen for 3 h. The samples are then acidified, extracted, and reconstituted as described above.\nLC-MS analysis of fatty acids: The reconstituted fatty acid extracts are subjected to HPLC on Targa C8 column (2×10 mm) using methanol-aqueous ammonium acetate (10 mM) solvent mixture. The column is eluted with a gradient of methanol (75 to 90%) over 8 min at a flow rate of 0.25 ml/min. The column eluent is directly introduced to mass analyzer (QTRAP5500) and monitored for fatty acids using published pseudo MRM method. Under these conditions, the VLCFA elute between 5 and 8 min. Each fatty acid is quantitated against the added internal standard.\nThe study planned different groups of patients. First, the evolution of hexacosanoic acid in fibroblasts is monitored in healthy control cells and in AMN human patient-derived primary fibroblasts; and in a second time a treatment of PXL770 was assigned to AMN human-derived primary fibroblasts in culture at different doses (PXL770: 0.1, 0.5, 1, 2, 3.5 and 5 μM; metformin: 100, 200, 300 and 400 μM) for one week and the level of hexacosanoic acid was measured.\nThe experiment described in Example 3 was reproduced with various thienopyridone compounds, namely: • PXL770: potassium 2-chloro-3-(5-hydroxytetralin-6-yl)-6-oxo-5-phenyl-7H-thieno[2,3-b]pyridin-4-olate • PXL700: 2-chloro-4-hydroxy-3-indan-5-yl-5-(3-pyridyl)-7H-thieno[2,3-b]pyridin-6-one • PXL702: 2-chloro-4-hydroxy-3-(4-hydroxyindan-5-yl)-5-phenyl-7H-thieno[2,3-b]pyridin-6-one • PXL695: 2-chloro-5-(3-fluorophenyl)-4-hydroxy-3-(4-hydroxyindan-5-yl)-7H-thieno[2,3-b]pyridin-6-one, • each tested at concentrations from 0.1 to 5 μM.\nA one-way ANOVA with Dunnett's multiple comparison test was performed to assess the effect of PXL770 on brain's VLCFAs (**** p<0.0001, *** p<0.001). A Kruskal-Wallis test with Dunn's multiple comparison test was performed to assess the effect of PXL770 on plasma's VLCFAs (**** p<0.0001, […])."}, "[2]": {"system": "AMN human patient-derived primary lymphocytes", "conditions": "AMN patient's derived lymphocytes, 5 mM, 7 days of treatment; FIG. 9; cited from earlier work"}, "[3]": {"system": "ABCD2", "conditions": "AMN patient's derived fibroblasts, 5 mM; FIG. 11; cited from earlier work"}, "[4]": {"system": "ABCD2", "conditions": "ABCD1-KO mice glial cells, 100 μM; FIG. 12; cited from earlier work"}, "[5]": {"system": "ALD patient-derived lymphocytes", "conditions": "ALD patient's derived lymphocytes, 5 mM, 7 days of treatment; FIG. 9; cited from earlier work"}, "[6]": {"system": "ABCD2", "conditions": "ALD patient's derived fibroblasts, 5 mM; FIG. 11; cited from earlier work"}, "[7]": {"system": "cultured fibroblasts", "conditions": "cited from earlier work"}, "[8]": {"conditions": "concentrations from 0.1 to 5 μM, FIG. 14"}}, "note": "Read-outs that look alike come from different tables or passages of the source.", "data": [{"compound": "O=c1[nH]c2sc(Cl)c(-c3ccc4c(c3O)CCC4)c2c(O)c1-c1cccc(F)c1", "note": "[PXL695, 2-chloro-5-(3-fluorophenyl)-4-hydroxy-3-(4-hydroxyindan-5-yl)-7H-thieno[2,3-b]pyridin-6-one]", "values": [{"measurement": "VLCFA levels", "setting": "[1]; [8]", "result": "comparable decrease"}]}, {"compound": "O=c1[nH]c2sc(Cl)c(-c3ccc4c(c3)CCC4)c2c(O)c1-c1cccnc1", "note": "[PXL700, 2-chloro-4-hydroxy-3-indan-5-yl-5-(3-pyridyl)-7H-thieno[2,3-b]pyridin-6-one, reference compound]", "values": [{"measurement": "VLCFA levels", "setting": "[1]; [8]", "result": "no or a very limited effect"}]}, {"compound": "O=c1[nH]c2sc(Cl)c(-c3ccc4c(c3O)CCC4)c2c(O)c1-c1ccccc1", "note": "[PXL702, 2-chloro-4-hydroxy-3-(4-hydroxyindan-5-yl)-5-phenyl-7H-thieno[2,3-b]pyridin-6-one]", "values": [{"measurement": "VLCFA levels", "setting": "[1]; [8]", "result": "comparable decrease"}]}, {"compound": "CN(C)C(=N)N=C(N)N", "note": "[metformin]", "values": [{"measurement": "VLCFA levels", "setting": "[1]; 400 μM, compared with thienopyridones at 5 μM, FIG. 15", "result": "no or a very limited effect"}, {"measurement": "decrease of VLCFA content", "setting": "[2]", "result": "−29", "unit": "%"}, {"measurement": "ABCD2 protein expression", "setting": "[3]", "result": "only slightly increased"}, {"measurement": "ABCD2 protein levels", "setting": "[4]", "result": "limited increase"}, {"measurement": "decrease of VLCFA content", "setting": "[5]", "result": "−42", "unit": "%"}, {"measurement": "ABCD2 protein expression", "setting": "[6]", "result": "only slightly increased"}, {"measurement": "dose at which efficacy is observed", "setting": "[7]", "result": "at least 100 μM"}]}]}
